Six compounds from patent US4730005A, “Leukotriene antagonist” (SmithKline Beckman Corporation, priority 1986, dated 1988) can be followed below.

In assay [1] the target is T1, leukotriene D4 (LTD4) induced contraction of guinea pig tracheal tissues (Cavia porcellus, UniProt Q2NNR5).
T1 construct: Guinea pig (adult male albino Hartley strain) tracheal spiral strips; from tissue; host or cells: guinea pig trachea (spiral strips, adult male albino Hartley strain)
T1 sequence (Q2NNR5 1-340): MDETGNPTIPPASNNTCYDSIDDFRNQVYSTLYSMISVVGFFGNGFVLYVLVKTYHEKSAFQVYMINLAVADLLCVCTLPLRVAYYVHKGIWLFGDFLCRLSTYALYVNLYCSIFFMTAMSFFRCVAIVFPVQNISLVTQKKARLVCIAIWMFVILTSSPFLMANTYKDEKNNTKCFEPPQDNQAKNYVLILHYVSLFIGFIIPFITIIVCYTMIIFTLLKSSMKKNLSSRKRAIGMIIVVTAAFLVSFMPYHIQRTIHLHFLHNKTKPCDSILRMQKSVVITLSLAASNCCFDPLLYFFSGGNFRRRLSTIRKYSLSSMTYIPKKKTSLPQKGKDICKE
Briefly: in vitro inhibition of LTD4 induced contraction of guinea pig tracheal spiral strips. The format is cell-based, guinea pig (adult male albino Hartley strain). The following applies: guinea pig trachea, LTD4 agonist, 30 min pretreatment with test compound. How it is done:
The leukotriene antagonist activity of the compounds of this invention is measured by the ability of the compounds to inhibit the leukotriene induced contraction of guinea pig tracheal tissues in vitro and to inhibit leukotriene induced bronchoconstriction in guinea pigs in vivo. The following methodologies were employed: In vitro: Guinea pig (adult male albino Hartley strain) tracheal spiral strips of approximate dimensions 2 to 3 mm cross-sectional width and 3.5 cm length were bathed in modified Krebs buffer in jacketed 10 ml tissue bath and continously aerated with 95% 02 /5% CO2. The tissues were connected via silk suture to force displacement transducers for recording isometric tension. The tissues were equilibrated for 1 hr., pretreated for 15 minutes with meclofenamic acid (1 μM) to remove intrinsic prostaglandin responses, and then pretreated for an additional 30 minutes with either the test compound or vehicle control. A cumulative concentration-response curve for LTD4 on triplicate tissues was generated by successive increases in the bath concentration of the LTD4. In order to minimize intertissue variability, the contractions elicited by LTD4 were standardized as a percentage of the maximum response obtained to a reference agonist, carbachol (10 μM). Calculations: The averages of the triplicate LTD4 concentration-response curves both in the presence and absence of the test compound were plotted on log graph paper. The concentration of LTD4 needed to elicit 30% of the contraction elicited by carbachol was measured and defined as the EC30. The -log KB value for the test compound was determined by the following equations: [formula] In vivo: Anesthetized, spontaneously breathing guinea pigs (Adult male albino Hartley strain) were monitored on a Buxco pulmonary mechanics computer. Changes in airway resistance (RL) were calculated by the computer on a breath-by-breath basis at isovolumic points from signals measuring airflow and transpulmonary pressure using differential pressure transducers. Animals received either test compound or vehicle control intravenously via the jugular vein. LTD4 was then injected into the jugular vein. The bronchoconstriction produced was reflected by % changes in airways resistance relative to the baseline values obtained prior to injection of the test compound or vehicle control. Each guinea pig received either vehicle control or test compound.

Assay [2] deals with LTD4 induced bronchoconstriction in guinea pigs. Briefly: in vivo inhibition of LTD4 induced bronchoconstriction (airway resistance RL) in guinea pigs. The following applies: intravenous. Details: species or system guinea pig (adult male albino Hartley strain). As for the experimental part:
The leukotriene antagonist activity of the compounds of this invention is measured by the ability of the compounds to inhibit the leukotriene induced contraction of guinea pig tracheal tissues in vitro and to inhibit leukotriene induced bronchoconstriction in guinea pigs in vivo. The following methodologies were employed: In vitro: Guinea pig (adult male albino Hartley strain) tracheal spiral strips of approximate dimensions 2 to 3 mm cross-sectional width and 3.5 cm length were bathed in modified Krebs buffer in jacketed 10 ml tissue bath and continously aerated with 95% 02 /5% CO2. The tissues were connected via silk suture to force displacement transducers for recording isometric tension. The tissues were equilibrated for 1 hr., pretreated for 15 minutes with meclofenamic acid (1 μM) to remove intrinsic prostaglandin responses, and then pretreated for an additional 30 minutes with either the test compound or vehicle control. A cumulative concentration-response curve for LTD4 on triplicate tissues was generated by successive increases in the bath concentration of the LTD4. In order to minimize intertissue variability, the contractions elicited by LTD4 were standardized as a percentage of the maximum response obtained to a reference agonist, carbachol (10 μM).
Calculations: The averages of the triplicate LTD4 concentration-response curves both in the presence and absence of the test compound were plotted on log graph paper. The concentration of LTD4 needed to elicit 30% of the contraction elicited by carbachol was measured and defined as the EC30. The -log KB value for the test compound was determined by the following equations: [formula] In vivo: Anesthetized, spontaneously breathing guinea pigs (Adult male albino Hartley strain) were monitored on a Buxco pulmonary mechanics computer. Changes in airway resistance (RL) were calculated by the computer on a breath-by-breath basis at isovolumic points from signals measuring airflow and transpulmonary pressure using differential pressure transducers. Animals received either test compound or vehicle control intravenously via the jugular vein. LTD4 was then injected into the jugular vein. The bronchoconstriction produced was reflected by % changes in airways resistance relative to the baseline values obtained prior to injection of the test compound or vehicle control. Each guinea pig received either vehicle control or test compound.
Calculations: The average of 3-6 animals per treatment was calculated using the % changes in the pulmonary parameters for control and test compound-treated animals. The average % inhibition by the test compound was calculated from the following equation: [formula]

Assay [3] has as its system arachidonic acid-induced inflammation in mice. Kind of assay: arachidonic acid-induced inflammation in mice. The format is in vivo.
For assay [4], the system named is carrageenan peritonitis in mice. Briefly: carrageenan peritonitis in mice. The following applies: oral administration at 100 mg/kg. The format is in vivo.

A word on the ED50: it is the midpoint of the dose-response relation. Higher therefore signals a need for a large dose. Take `O=C(O)CCSC(SCCC(=O)O)c1ccccc1CCCCCCCCc1ccccc1` [2 2 C8 H16 phenyl H, 4,6-Dithia-5-[2-(8-phenyloctyl)phenyl]nonanedioic acid]: in assay [1], the Kb is 316 nM. The “% Inhibition of RL” value in assay [2] ((1) 5 mg/kg) is 100%; in assay [2] ((2) 5 mg/kg), 95.3%. In assay [3] (Mus musculus, oral), it took a dose of 105 mg/kg to reach the 50% effect level (ED50). The anti-inflammatory activity result in assay [3] (oral administration), in assay [3] (subcutaneous administration) and in assay [3] (topical administration) was “demonstrated anti-inflammatory activity” in each case. The “activity against carrageenan peritonitis” value in assay [4] was “demonstrated activity”.

On to `CCCCCCCCCCc1ccccc1C(SCCC(=O)O)SCCC(=O)O` [2 2 C10 H21 H, 4,6-dithia-5-(2-decylphenyl)nonanedioic acid], for which the Kb in assay [1] is 316 nM. In addition, the “% Inhibition of RL” value in assay [2] (5 mg/kg) is listed as 60.7%.

Take `O=C(O)CCSC(SCCC(=O)O)c1ccccc1CCCCCCCCCCCC(F)(F)F` [2 2 C11 H22 CF3 H, 4,6-Dithia-5-[2-(12,12,12-trifluorododecyl)phenyl]nonanedioic acid]: the Kb in assay [1] is 631 nM. For the same compound, in assay [2] (5 mg/kg), the “% Inhibition of RL” value worked out at 30.4%.

Consider `CCCCCCCCCCCCc1ccccc1C(SCCC(=O)O)SCCC(=O)O` [2 2 C12 H25 H, 4,6-Dithia-5-(2-dodecylphenyl)nonanedioic acid], for which the Kb in assay [1] is 631 nM. Further, the “% Inhibition of RL” value in assay [2] (5 mg/kg) is recorded as 96.5%.

Regarding `O=C(O)CCSC(SCCC(=O)O)c1ccccc1OCCCCCCc1ccccc1` [2 2 OC6 H12 phenyl H, 4,6-Dithia-5-[2-(6-phenylhexyloxy)phenyl]nonanedioic acid], the Kb in assay [1] was 5010 nM. The “% Inhibition of RL” value in assay [2] (10 mg/kg) is 26.4%.

`CCCCCCCCCCCOc1ccccc1C(SCCC(=O)O)SCCC(=O)O` [2 2 OC11 H23 H, 4,6-Dithia-5-(2-undecyloxyphenyl)nonanedioic acid]: in assay [1], the Kb is 398 nM. Moreover, the “% Inhibition of RL” value in assay [2] (10 mg/kg) amounted to 89.4%.
